In patent publication EP4603105A1, “PHARMACEUTICAL COMPOSITION CONTAINING CYCLIC COMPOUND HAVING SELECTIVE KRAS INHIBITORY EFFECT AGAINST HRAS AND NRAS” (CHUGAI SEIYAKU KABUSHIKI KAISHA, priority 2022, dated 2024):
Where a SMILES comes first, the peptide text is derived from it. Bridges are numbered along the chain shown (N, C = ends). [ ]: non-standard residue; d: D form. The star is where a group is joined. ξ: configuration not given here. hPhe(3-Cl-4-CF3) = N[C@@H](CCc1ccc(C(F)(F)F)c(Cl)c1)C(=O)O; NPrPhe(4-CF3) = CCCN[C@@H](Cc1ccc(C(F)(F)F)cc1)C(=O)O; NMeGly(cPent) = CN[C@H](C(=O)O)C1CCCC1; NMeNva(3-Et) = CCC(CC)[C@H](NC)C(=O)O; Gly(cBu) = N[C@H](C(=O)O)C1CCC1; NMeD = CN[C@@H](CC(=O)O)C(=O)O; NMeL = CN[C@@H](CC(C)C)C(=O)O; Oxazolidin(3-yl) = C1CN(*)CO1; ξNMeD = CNC(CC(=O)O)C(=O)O; Morpholide = C1CN(*)CCO1; NMeA = CN[C@@H](C)C(=O)O; Ac5c = NC1(C(=O)O)CCCC1; Aze = O=C(O)[C@@H]1CCN1; NcPrGly = O=C(O)CNC1CC1; Ac4c = NC1(C(=O)O)CCC1; ξP = O=C(O)C1CCCN1; NEtG = CCNCC(=O)O; Sar = CNCC(=O)O

Legend:
HRAS wild-type protein = HRAS wild-type protein (Homo sapiens, UniProt P01112); assay: Binding to HRAS by surface plasmon resonance (SPR), KD and KD ratio to KRAS
HRAS wild-type protein, sequence (P01112 whole entry): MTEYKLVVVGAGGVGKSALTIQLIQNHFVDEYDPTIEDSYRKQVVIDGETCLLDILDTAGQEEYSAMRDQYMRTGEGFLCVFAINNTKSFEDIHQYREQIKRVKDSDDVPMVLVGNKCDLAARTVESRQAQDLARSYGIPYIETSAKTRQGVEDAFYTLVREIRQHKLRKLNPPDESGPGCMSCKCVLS
In short: (§1)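 Recombinant RAS proteins bearing a biotinylated Avi tag and loaded with GDP served as the captured ligand, recaptured fresh every cycle. Binding responses were referenced to an uncoated surface and a buffer-only blank cycle. Dissociation constants were obtained by 1:1 model fitting at 30°C.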

[1] = target: GDP-bound NRAS wild-type protein (Homo sapiens, UniProt P01111); assay: Binding to NRAS by surface plasmon resonance (SPR), KD and KD ratio to KRAS
GDP-bound NRAS wild-type protein, sequence (P01111 whole entry): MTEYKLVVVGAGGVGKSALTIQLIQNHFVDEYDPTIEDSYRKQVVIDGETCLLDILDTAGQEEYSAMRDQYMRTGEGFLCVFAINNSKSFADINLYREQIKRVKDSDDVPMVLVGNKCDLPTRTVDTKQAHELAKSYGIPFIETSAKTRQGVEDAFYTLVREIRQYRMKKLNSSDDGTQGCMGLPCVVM
In short: as §1

[2] = tested on: human lung cancer strain NCI-H441; type: cell-based
In short: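 Signal came from […] measured per well once the reagent was added. Beforehand, cells were cultured at 37°C and 5% carbon dioxide on a compound series serially diluted in dimethyl sulfoxide.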

[3] = ratio of KD for HRAS wild-type protein to KD for KRAS
[4] = ratio of KD for GDP-bound NRAS wild-type protein to KD for KRAS
[5] = ratio of the KD value with respect to HRAS wild-type protein to the KD value with respect to KRAS
[6] = ratio of the KD value with respect to GDP-bound NRAS wild-type protein to the KD value with respect to KRAS

In the case of `CCCN1C(=O)CN(C)C(=O)CN(C)C(=O)[C@H]([C@@H](C)CC)NC(=O)[C@H](CC(C)C)N(C)C(=O)CC(C(=O)N2CCOCC2)N(C)C(=O)[C@H](C2CCCC2)N(C)C(=O)C2(CCCC2)NC(=O)[C@@H]2CCCN2C(=O)[C@H](CCc2ccc(C(F)(F)F)c(Cl)c2)NC(=O)C2CCCN2C(=O)[C@@H]1Cc1ccc(C(F)(F)F)cc1` (stereo partly drawn) [PP0149] ([NMeL]I[Sar][Sar][NPrPhe(4-CF3)][ξP][hPhe(3-Cl-4-CF3)]P[Ac5c][NMeGly(cPent)][ξNMeD]-Morpholide; lactam N-11), the “HRAS /KRAS” value (HRAS wild-type protein; [3]) is reported as “B (a compound having 3 or more and less than 10 is denoted as B)”, the “NRAS /KRAS” value [1, 4] is reported as “C (A compound having a KD ratio of 0.1 or more and less than 3 is denoted as C)” and the IC50 [2] is reported as 0.317 µM.
With `CCCN1C(=O)[C@@H]2CCN2C(=O)[C@H](C)N(C)C(=O)[C@H]([C@@H](C)CC)NC(=O)[C@H](CC(C)C)N(C)C(=O)C[C@@H](C(=O)N(C)C)N(C)C(=O)[C@H](C(CC)CC)N(C)C(=O)C2(CCC2)NC(=O)[C@@H]2CCCN2C(=O)[C@H](CCc2ccc(C(F)(F)F)c(Cl)c2)NC(=O)CN(C)C(=O)[C@@H]1Cc1ccc(C(F)(F)F)cc1` [PP1961] ([NMeL]I[NMeA][Aze][NPrPhe(4-CF3)][Sar][hPhe(3-Cl-4-CF3)]P[Ac4c][NMeNva(3-Et)][NMeD]-NMe2; lactam N-11) the “HRAS /KRAS” value (HRAS wild-type protein; [5]) was “C (A compound having a KD ratio of 0.1 or more and less than 3 is denoted as C)”, the “NRAS /KRAS” value [1, 6] was “C (A compound having a KD ratio of 0.1 or more and less than 3 is denoted as C)” and the IC50 [2] was 0.008 µM.
For `CCO[C@@H]1C[C@H]2C(=O)NC3(CCC3)C(=O)N(C)[C@@H](C3CCCC3)C(=O)N(C)[C@H](C(=O)N(C)C)CC(=O)N(C)[C@@H](CC(C)C)C(=O)N[C@@H]([C@@H](C)CC)C(=O)N(C)CC(=O)N(C)[C@H]3C/C=C\CCN(C3=O)[C@@H](Cc3ccc(F)cc3C)C(=O)N(C)CC(=O)N[C@@H](CCc3cc(F)c(C(F)(F)F)c(F)c3)C(=O)N2C1` [PP1532], the “HRAS /KRAS” value (HRAS wild-type protein; ratio of KD value for HRAS wild-type protein to KD value for KRAS (SPR)) was “B (a compound having 3 or more and less than 10 is denoted as B)”, the “NRAS /KRAS” value ([1]; ratio of KD value for GDP-bound NRAS wild-type protein to KD value for KRAS (SPR)) was “A (a compound having 10 or more and less than 20 is denoted as A)” and the IC50 [2] was 0.0134 µM.
`CCCN1C(=O)CN(C)C(=O)CN(C2CC2)C(=O)[C@H]([C@@H](C)CC)NC(=O)[C@H](CC(C)C)N(C)C(=O)C[C@@H](C(=O)N2CCOCC2)N(C)C(=O)[C@H](C2CCCC2)N(C)C(=O)C2(CCCC2)NC(=O)[C@@H]2CCCN2C(=O)[C@H](CCc2ccc(C(F)(F)F)c(Cl)c2)NC(=O)CN(C)C(=O)[C@@H]1Cc1ccc(C(F)(F)F)cc1` [PP0252] ([NMeL]I[NcPrGly][Sar][NPrPhe(4-CF3)][Sar][hPhe(3-Cl-4-CF3)]P[Ac5c][NMeGly(cPent)][NMeD]-Morpholide; lactam N-11) was tested, and the “HRAS /KRAS” value (HRAS wild-type protein; [3]) was “B (a compound having 3 or more and less than 10 is denoted as B)”, the “NRAS /KRAS” value [1, 4] was “B (a compound having 3 or more and less than 10 is denoted as B)” and the IC50 [2] was 0.0194 µM.
In the case of `CCO[C@@H]1C[C@H]2C(=O)NC3(CC(C)(C)C3)C(=O)N(C)[C@@H](C3CCCC3)C(=O)N(C)[C@H](C(=O)N(C)C)CC(=O)N(C)[C@@H](CC(C)C)C(=O)N[C@@H]([C@@H](C)CC)C(=O)N(C)CC(=O)N(C)[C@H]3C/C=C\CCN(C3=O)[C@@H](Cc3ccc(C(F)(F)F)cc3)C(=O)N(C)CC(=O)N[C@@H](CCc3ccc(C(F)(F)F)c(F)c3)C(=O)N2C1` [PP1931], the “HRAS /KRAS” value (HRAS wild-type protein; [5]) is reported as “B (a compound having 3 or more and less than 10 is denoted as B)”, the “NRAS /KRAS” value [1, 6] is reported as “A (a compound having 10 or more and less than 20 is denoted as A)” and the IC50 [2] is reported as 0.0095 µM.
In the case of `CCC[C@H]1C(=O)N[C@@H]([C@@H](C)CC)C(=O)N(C)CC(=O)N(C)[C@H]2C/C=C\CCN(C2=O)[C@@H](Cc2ccc(C)cc2)C(=O)N(C)CC(=O)N[C@@H](CCc2cc(Cl)c3sccc3c2)C(=O)N2C[C@H](OCC)C[C@H]2C(=O)NC2(CC(C)(C)C2)C(=O)N(C)[C@@H](C(CC)CC)C(=O)N(C)[C@H](C(=O)N(C)C)CC(=O)N1C` [PP2890], the “HRAS /KRAS” value (HRAS wild-type protein; [3]) is reported as “A (a compound having 10 or more and less than 20 is denoted as A)”, the “NRAS /KRAS” value [1, 4] is reported as “AA (a compound having 20 or more is denoted as AA)” and the IC50 [2] is reported as 0.0103 µM.
For `CCCOC[C@H]1C(=O)N[C@@H]([C@@H](C)CC)C(=O)N(C)CC(=O)N(C)[C@H]2C/C=C\CCN(C2=O)[C@@H](Cc2ccc(C(F)(F)F)cc2)C(=O)N(C)CC(=O)N[C@@H](CCc2ccc(C(F)(F)F)c(OC)c2)C(=O)N2C[C@@H](C)C[C@H]2C(=O)NC2(CC(C)(C)C2)C(=O)N(C)[C@@H](C2CCCC2)C(=O)N(C)[C@H](C(=O)N(C)CC)CC(=O)N1C` [PP1995], the “HRAS /KRAS” value (HRAS wild-type protein; [5]) was “B (a compound having 3 or more and less than 10 is denoted as B)”, the “NRAS /KRAS” value [1, 6] was “A (a compound having 10 or more and less than 20 is denoted as A)” and the IC50 [2] was 0.0178 µM.
`CCO[C@@H]1C[C@H]2C(=O)NC3(CCC3)C(=O)N(C)[C@@H](C3CCCC3)C(=O)N(CCC3CCCC3)[C@H](C(=O)N3CCOCC3)CC(=O)N(C)[C@@H](CC)C(=O)N[C@@H]([C@@H](C)CC)C(=O)N(C)CC(=O)N(C)[C@H]3C/C=C\CCN(C3=O)[C@@H](Cc3ccc(C(F)(F)F)cc3)C(=O)N(C)CC(=O)N[C@@H](CCc3cc(F)c(C(F)(F)F)c(F)c3)C(=O)N2C1` [PP0981] was tested, and the “HRAS /KRAS” value (HRAS wild-type protein; [3]) was “A (a compound having 10 or more and less than 20 is denoted as A)”, the “NRAS /KRAS” value [1, 4] was “AA (a compound having 20 or more is denoted as AA)” and the IC50 [2] was 0.797 µM.
With `CCCN1C(=O)[C@@H]2CCN2C(=O)[C@H](C)N(C)C(=O)[C@H]([C@@H](C)CC)NC(=O)[C@H](CC(C)C)N(C)C(=O)C[C@@H](C(=O)N2CCOC2)N(C)C(=O)[C@H](C2CCCC2)N(C)C(=O)C2(CCCC2)NC(=O)[C@@H]2CCCN2C(=O)[C@H](CCc2ccc(C(F)(F)F)c(Cl)c2)NC(=O)CN(C)C(=O)[C@@H]1Cc1ccc(C(F)(F)F)cc1` [PP0183] ([NMeL]I[NMeA][Aze][NPrPhe(4-CF3)][Sar][hPhe(3-Cl-4-CF3)]P[Ac5c][NMeGly(cPent)][NMeD]-{Oxazolidin(3-yl)}; lactam N-11) the “HRAS /KRAS” value (HRAS wild-type protein; [3]) was “B (a compound having 3 or more and less than 10 is denoted as B)”, the “NRAS /KRAS” value [1, 4] was “C (A compound having a KD ratio of 0.1 or more and less than 3 is denoted as C)” and the IC50 [2] was 0.0016 µM.
With `CCCN1C(=O)CN(C)C(=O)CN(CC)C(=O)[C@H](C2CCC2)NC(=O)[C@H](CC(C)C)N(C)C(=O)C[C@@H](C(=O)N2CCOCC2)N(C)C(=O)[C@H](C2CCCC2)N(C)C(=O)C2(CCCC2)NC(=O)[C@@H]2CCCN2C(=O)[C@H](CCc2ccc(C(F)(F)F)c(Cl)c2)NC(=O)CN(C)C(=O)[C@@H]1Cc1ccc(C(F)(F)F)cc1` [PP0292] ([NMeL][Gly(cBu)][NEtG][Sar][NPrPhe(4-CF3)][Sar][hPhe(3-Cl-4-CF3)]P[Ac5c][NMeGly(cPent)][NMeD]-Morpholide; lactam N-11) the “HRAS /KRAS” value (HRAS wild-type protein; [3]) was “C (A compound having a KD ratio of 0.1 or more and less than 3 is denoted as C)”, the “NRAS /KRAS” value [1, 4] was “B (a compound having 3 or more and less than 10 is denoted as B)” and the IC50 [2] was 0.0363 µM.
